The supplement of paper PMC13380429

Assays:
[1] = system: A549-ACE2 infected with SARS-CoV-2; experiment: cell count relative to DMSO; higher = less toxic; details: 24 h
[2] = system: Caco-2; experiment: cell viability relative to DMSO; higher = less toxic; details: 72 h
[3] = system: HepG2; experiment: as above; details: 72 h
[4] = system: U2OS; experiment: as above; details: 72 h
[5] = system: Vero E6; experiment: as above; details: 72 h
[6] = system: A549-ACE2 infected with SARS-CoV-2; experiment: SARS-CoV-2 infection rate relative to DMSO; higher = more infection; details: 24 h
[7] = system: A549-ACE2; experiment: phospholipidosis EC50; higher = less potent phospholipidosis inducer
[8] = system: A549-ACE2; experiment: drug-induced phospholipidosis relative to tamoxifen; higher = more phospholipidosis
[9] = system: A549-ACE2 infected with SARS-CoV-2; experiment: morphology score (similarity to uninfected cells); higher = more like uninfected cells; details: 24 h
[10] = system: Caco-2; experiment: relative viability EC50 (midpoint between 100% and the lowest measured viability); higher = less toxic; details: 72 h
[11] = system: HepG2; experiment: as above; details: 72 h
[12] = system: U2OS; experiment: as above; details: 72 h
[13] = system: Vero E6; experiment: as above; details: 72 h
[14] = system: Caco-2; experiment: drug sensitivity score (DSS) for viability; higher = more toxic; extreme values may be limits of the assay; details: 72 h
[15] = system: HepG2; experiment: as above; details: 72 h
[16] = system: U2OS; experiment: as above; details: 72 h
[17] = system: Vero E6; experiment: as above; details: 72 h
[18] = system: Calu-3; experiment: cell viability relative to DMSO; higher = less toxic; details: 72 h
[19] = system: Calu-3; experiment: relative viability EC50 (midpoint between 100% and the lowest measured viability); higher = less toxic; details: 72 h
[20] = system: Calu-3; experiment: drug sensitivity score (DSS) for viability; higher = more toxic; extreme values may be limits of the assay; details: 72 h

COc1cccc([C@@H](C)NCCCc2ccccc2Cl)c1 [tecalcet]
Details | SARS-CoV-2 infection rate [%] | cell count [%] | cell viability [%] | morphology score | phospholipidosis EC50 [µM]
[1], 0.3 µM | – | 97 | – | – | –
[1], 3 µM | – | 105 | – | – | –
[1], 10 µM | – | 116 | – | – | –
[1], 30 µM | – | 112 | – | – | –
[2], 1 nM | – | – | 101 | – | –
[2], 10 nM | – | – | 94.8 | – | –
[2], 100 nM | – | – | 94.5 | – | –
[2], 1000 nM | – | – | 92.4 | – | –
[2], 10000 nM | – | – | 86.3 | – | –
[3], 1 nM | – | – | 92.9 | – | –
[3], 10 nM | – | – | 101 | – | –
[3], 100 nM | – | – | 101 | – | –
[3], 1000 nM | – | – | 108 | – | –
[3], 10000 nM | – | – | 83.1 | – | –
[4], 1 nM | – | – | 101 | – | –
[4], 10 nM | – | – | 97.6 | – | –
[4], 100 nM | – | – | 101 | – | –
[4], 1000 nM | – | – | 102 | – | –
[4], 10000 nM | – | – | 90.2 | – | –
[5], 1 nM | – | – | 108 | – | –
[5], 10 nM | – | – | 103 | – | –
[5], 100 nM | – | – | 101 | – | –
[5], 1000 nM | – | – | 101 | – | –
[5], 10000 nM | – | – | 96.2 | – | –
[6], 0.3 µM | 111 | – | – | – | –
[6], 3 µM | 84 | – | – | – | –
[6], 10 µM | 52 | – | – | – | –
[6], 30 µM | 10 | – | – | – | –
[7], 24 h | – | – | – | – | 6.31
[7], 48 h | – | – | – | – | 8.26
[7], 72 h | – | – | – | – | 11.4
[9], 0.3 µM | – | – | – | -0.35 | –
[9], 3 µM | – | – | – | 0.47 | –
[9], 10 µM | – | – | – | 0.9 | –
[9], 30 µM | – | – | – | 0.78 | –

drug-induced phospholipidosis [%], [8]
Details | 0.3 µM | 0.833333 µM | 3.33333 µM | 6.66667 µM | 10 µM | 30 µM
24 h | 3.6 | 1.52 | 14.2 | 49.8 | 74.2 | 90
48 h | 5 | 4.11 | 18.9 | 41.5 | 67.1 | 98.2
72 h | 7.69 | 2.06 | 15.2 | 34.4 | 61.6 | 117

Details | drug sensitivity score | relative viability EC50 [µM]
[10] | – | > 10
[11] | – | > 10
[12] | – | > 10
[13] | – | > 10
[14] | 0.2 | –
[15] | 0.2 | –
[16] | 0 | –
[17] | 0 | –

Cc1cc(N2CCN([C@@H]3CN[C@H](C(=O)N4CCSC4)C3)CC2)n(-c2ccccc2)n1 [teneligliptin]
cell viability [%]
Details | [2] | [3] | [4] | [5] | [18]
1 nM | 104 | 101 | 95.8 | 104 | 104
10 nM | 97.9 | 106 | 101 | 98.9 | 108
100 nM | 94.3 | 98.4 | 99.5 | 101 | 92.6
1000 nM | 101 | 97 | 100 | 99.2 | 91.9
10000 nM | 90 | 94.7 | 98.3 | 98.2 | 102

Details | drug sensitivity score | relative viability EC50 [µM]
[10] | – | > 10
[11] | – | > 10
[12] | – | > 10
[13] | – | > 10
[14] | 0 | –
[15] | 0 | –
[16] | 0 | –
[17] | 0 | –
[19] | – | > 10
[20] | 0 | –

Nc1nc2[nH]cnc2c(=S)[nH]1 [thioguanine]
cell viability [%]
Details | [2] | [3] | [4] | [5] | [18]
1 nM | 101 | 88.1 | 104 | 96.6 | 99.6
10 nM | 90.1 | 99 | 98.5 | 103 | 103
100 nM | 94.6 | 86.2 | 94 | 92.3 | 95
1000 nM | 76.2 | 84.1 | 67.4 | 97.5 | 94.8
10000 nM | 43.4 | 19.2 | 25.1 | 19.2 | 80.5

Details | drug sensitivity score | relative viability EC50 [µM]
[10] | – | 1.19
[11] | – | 1.75
[12] | – | 1.16
[13] | – | 2.94
[14] | 5.7 | –
[15] | 7.1 | –
[16] | 7.9 | –
[17] | 4.8 | –
[19] | – | > 10
[20] | 0.9 | –

CCCC(C)C1(CC)C(=O)NC(=S)NC1=O (stereo unspecified) [thiopental]
cell viability [%]
Details | [2] | [3] | [4] | [5] | [18]
1 nM | 100 | 102 | 100 | 96.2 | 99.6
10 nM | 100 | 100 | 98.2 | 95.2 | 98.6
100 nM | 104 | 101 | 99.9 | 94 | 93.3
1000 nM | 96.4 | 90.5 | 101 | 95.7 | 102
10000 nM | 91 | 89.5 | 97.5 | 95.1 | 98.8

Details | drug sensitivity score | relative viability EC50 [µM]
[10] | – | > 10
[11] | – | > 10
[12] | – | > 10
[13] | – | > 10
[14] | 0 | –
[15] | 0.1 | –
[16] | 0 | –
[17] | 0 | –
[19] | – | > 10
[20] | 0 | –
